Measured values taken from PubChem BioAssay (NCI).
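In this assay, cells in 96-well plates receive the compound at five concentrations for 48 hours. Endpoints are linearly interpolated between the surrounding concentrations. TGI denotes the concentration required for complete inhibition of growth.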

Legend:
Experiment in all cases: inhibition of tumour cell growth, NCI panel, 48 h
SF-539 CNS = system: SF-539 CNS
CCRF-CEM leukemia = system: CCRF-CEM leukemia
EKVX NSCLC = system: EKVX NSCLC
COLO 205 colon = system: COLO 205 colon
MALME-3M melanoma = system: MALME-3M melanoma
HT29 colon = system: HT29 colon
MCF7 breast = system: MCF7 breast
NCI-H522 lung = system: NCI-H522 lung
HL-60(TB) leukemia = system: HL-60(TB) leukemia
MDA-N = system: MDA-N
PC-3 prostate = system: PC-3 prostate
SF-295 CNS = system: SF-295 CNS
NCI-H226 lung = system: NCI-H226 lung
IGROV1 ovarian = system: IGROV1 ovarian
MDA-MB-231 breast = system: MDA-MB-231 breast
LOX IMVI melanoma = system: LOX IMVI melanoma
HCT-15 colon = system: HCT-15 colon
A549 NSCLC = system: A549 NSCLC
M14 melanoma = system: M14 melanoma
BT-549 breast = system: BT-549 breast
HOP-62 NSCLC = system: HOP-62 NSCLC
KM12 colon = system: KM12 colon
SN12C renal = system: SN12C renal
ACHN renal = system: ACHN renal
A498 renal = system: A498 renal
UO-31 renal = system: UO-31 renal
SW-620 colon = system: SW-620 colon
DU-145 prostate = system: DU-145 prostate
NCI/ADR-RES ovarian = system: NCI/ADR-RES ovarian
SK-MEL-2 melanoma = system: SK-MEL-2 melanoma
SNB-75 CNS = system: SNB-75 CNS
U251 CNS = system: U251 CNS
SF-268 CNS = system: SF-268 CNS
NCI-H460 lung = system: NCI-H460 lung
MOLT-4 leukemia = system: MOLT-4 leukemia
OVCAR-5 ovarian = system: OVCAR-5 ovarian
HOP-92 NSCLC = system: HOP-92 NSCLC
HCT-116 colon = system: HCT-116 colon
RPMI-8226 leukemia = system: RPMI-8226 leukemia
SNB-19 CNS = system: SNB-19 CNS
SK-MEL-5 melanoma = system: SK-MEL-5 melanoma
SK-MEL-28 melanoma = system: SK-MEL-28 melanoma
TK-10 renal = system: TK-10 renal
CAKI-1 renal = system: CAKI-1 renal
OVCAR-4 ovarian = system: OVCAR-4 ovarian
T-47D breast = system: T-47D breast
HCC-2998 colon = system: HCC-2998 colon
HS 578T breast = system: HS 578T breast
NCI-H23 lung = system: NCI-H23 lung
RXF 393 renal = system: RXF 393 renal
SK-OV-3 ovarian = system: SK-OV-3 ovarian
UACC-257 melanoma = system: UACC-257 melanoma
OVCAR-3 ovarian = system: OVCAR-3 ovarian
SR leukemia = system: SR leukemia
UACC-62 melanoma = system: UACC-62 melanoma
OVCAR-8 ovarian = system: OVCAR-8 ovarian
MDA-MB-435 = system: MDA-MB-435
786-0 renal = system: 786-0 renal
K-562 leukemia = system: K-562 leukemia
SNB-78 CNS = system: SNB-78 CNS
DMS 114 small cell lung = system: DMS 114 small cell lung
DLD-1 colon = system: DLD-1 colon
M19-MEL melanoma = system: M19-MEL melanoma
KM20L2 colon = system: KM20L2 colon
LXFL 529 NSCLC = system: LXFL 529 NSCLC

`N#Cc1nc(-c2cccs2)oc1N` was tested, and the TGI (SF-539 CNS) was > 100 µM, the TGI (CCRF-CEM leukemia) was > 100 µM and the TGI (EKVX NSCLC) was > 100 µM. For the same molecule, the TGI (COLO 205 colon) was > 100 µM, the TGI (MALME-3M melanoma) was > 100 µM and the TGI (HT29 colon) was > 100 µM. For the same molecule, the TGI (MCF7 breast) was > 100 µM, the TGI (NCI-H522 lung) was 92 µM and the TGI (HL-60(TB) leukemia) was > 100 µM. For the same molecule, the TGI (MDA-N) was > 100 µM, the TGI (PC-3 prostate) was > 100 µM and the TGI (SF-295 CNS) was > 100 µM. The TGI (NCI-H226 lung) was > 100 µM, the TGI (IGROV1 ovarian) was > 100 µM and the TGI (MDA-MB-231 breast) was > 100 µM. The TGI (LOX IMVI melanoma) was > 100 µM, the TGI (HCT-15 colon) was > 100 µM and the TGI (A549 NSCLC) was > 100 µM. The TGI (M14 melanoma) was > 100 µM, the TGI (BT-549 breast) was > 100 µM and the TGI (HOP-62 NSCLC) was > 100 µM. For the same molecule, the TGI (KM12 colon) was > 100 µM, the TGI (SN12C renal) was > 100 µM and the TGI (ACHN renal) was > 100 µM. For the same molecule, the TGI (A498 renal) was > 100 µM, the TGI (UO-31 renal) was > 100 µM and the TGI (SW-620 colon) was > 100 µM. The TGI (DU-145 prostate) was > 100 µM, the TGI (NCI/ADR-RES ovarian) was > 100 µM and the TGI (SK-MEL-2 melanoma) was > 100 µM. For the same molecule, the TGI (SNB-75 CNS) was > 100 µM, the TGI (U251 CNS) was > 100 µM and the TGI (SF-268 CNS) was > 100 µM. The TGI (NCI-H460 lung) was > 100 µM, the TGI (MOLT-4 leukemia) was > 100 µM and the TGI (OVCAR-5 ovarian) was > 100 µM. For the same molecule, the TGI (HOP-92 NSCLC) was > 100 µM, the TGI (HCT-116 colon) was > 100 µM and the TGI (RPMI-8226 leukemia) was > 100 µM. The TGI (SNB-19 CNS) was > 100 µM, the TGI (SK-MEL-5 melanoma) was > 100 µM and the TGI (SK-MEL-28 melanoma) was > 100 µM. For the same molecule, the TGI (TK-10 renal) was > 100 µM, the TGI (CAKI-1 renal) was 53.1 µM and the TGI (OVCAR-4 ovarian) was > 100 µM. The TGI (T-47D breast) was > 100 µM, the TGI (HCC-2998 colon) was > 100 µM and the TGI (HS 578T breast) was > 100 µM. For the same molecule, the TGI (NCI-H23 lung) was > 100 µM, the TGI (RXF 393 renal) was > 100 µM and the TGI (SK-OV-3 ovarian) was > 100 µM. The TGI (UACC-257 melanoma) was > 100 µM, the TGI (OVCAR-3 ovarian) was > 100 µM and the TGI (SR leukemia) was > 100 µM. The TGI (UACC-62 melanoma) was > 100 µM, the TGI (OVCAR-8 ovarian) was > 100 µM and the TGI (MDA-MB-435) was > 100 µM. For the same molecule, the TGI (786-0 renal) was > 100 µM and the TGI (K-562 leukemia) was > 100 µM.

For `COc1cccc(C2CC(C)=Nc3c(ccc4c3C(=O)c3ccccc3C4=O)N2)c1O` (configuration not stated), the TGI (SNB-78 CNS) was > 100 µM, the TGI (EKVX NSCLC) was > 100 µM and the TGI (COLO 205 colon) was > 100 µM. For the same molecule, the TGI (MALME-3M melanoma) was > 100 µM, the TGI (HT29 colon) was > 100 µM and the TGI (HL-60(TB) leukemia) was > 100 µM. For the same molecule, the TGI (NCI-H226 lung) was > 100 µM, the TGI (IGROV1 ovarian) was > 100 µM and the TGI (HCT-15 colon) was > 100 µM. The TGI (DMS 114 small cell lung) was > 100 µM, the TGI (A549 NSCLC) was > 100 µM and the TGI (M14 melanoma) was > 100 µM. The TGI (DLD-1 colon) was > 100 µM, the TGI (HOP-62 NSCLC) was > 100 µM and the TGI (KM12 colon) was > 100 µM. For the same molecule, the TGI (SN12C renal) was > 100 µM, the TGI (ACHN renal) was > 100 µM and the TGI (A498 renal) was > 100 µM. The TGI (UO-31 renal) was > 100 µM, the TGI (SW-620 colon) was > 100 µM and the TGI (M19-MEL melanoma) was > 100 µM. The TGI (SNB-75 CNS) was > 100 µM, the TGI (U251 CNS) was > 100 µM and the TGI (NCI-H460 lung) was > 100 µM. For the same molecule, the TGI (OVCAR-5 ovarian) was > 100 µM, the TGI (HOP-92 NSCLC) was > 100 µM and the TGI (HCT-116 colon) was > 100 µM. For the same molecule, the TGI (RPMI-8226 leukemia) was > 100 µM, the TGI (SNB-19 CNS) was > 100 µM and the TGI (KM20L2 colon) was > 100 µM. For the same molecule, the TGI (HCC-2998 colon) was > 100 µM, the TGI (NCI-H23 lung) was > 100 µM and the TGI (LXFL 529 NSCLC) was > 100 µM. The TGI (OVCAR-3 ovarian) was 95.1 µM, the TGI (UACC-62 melanoma) was > 100 µM and the TGI (OVCAR-8 ovarian) was > 100 µM. For the same molecule, the TGI (786-0 renal) was > 100 µM and the TGI (K-562 leukemia) was > 100 µM.
